From patent publication US11623919B2, “Heterocyclic P2X7 antagonists” (AXXAM S.P.A., priority 2017, dated 2023) come the findings set out here.

Common to all, as to assay: Screen Quest Fluo-8 No Wash Calcium Assay (Bz-ATP evoked Ca2+ influx, FLIPR)
Format in all cases: cell-based

The target of assay [1] is T1, P2X7 receptor (Mus musculus, UniProt Q9Z1M0).
T1 construct: mP2X7 (IC50; nM); other: mP2X7; HEK-293 cells stably transfected with P2X7 receptor, Bz-ATP at EC80, Fluo-8 NW; potency
T1 sequence (Q9Z1M0 1-595): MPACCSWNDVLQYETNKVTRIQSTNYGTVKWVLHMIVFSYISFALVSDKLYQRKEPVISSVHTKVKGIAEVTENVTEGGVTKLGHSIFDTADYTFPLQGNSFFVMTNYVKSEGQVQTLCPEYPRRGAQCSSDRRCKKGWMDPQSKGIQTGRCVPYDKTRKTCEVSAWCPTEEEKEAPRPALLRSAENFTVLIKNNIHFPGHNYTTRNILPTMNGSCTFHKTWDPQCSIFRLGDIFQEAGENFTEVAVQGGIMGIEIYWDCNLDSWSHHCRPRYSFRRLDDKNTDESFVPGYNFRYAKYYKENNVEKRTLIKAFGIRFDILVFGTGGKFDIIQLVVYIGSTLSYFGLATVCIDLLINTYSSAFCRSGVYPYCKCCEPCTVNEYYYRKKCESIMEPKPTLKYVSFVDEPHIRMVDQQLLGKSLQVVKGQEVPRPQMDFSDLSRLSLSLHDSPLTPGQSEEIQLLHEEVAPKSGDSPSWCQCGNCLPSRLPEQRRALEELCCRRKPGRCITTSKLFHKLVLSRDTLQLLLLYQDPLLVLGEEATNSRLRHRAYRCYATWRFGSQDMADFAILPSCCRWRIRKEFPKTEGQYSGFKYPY
To be noted: mP2X7; HEK-293 cells stably transfected with P2X7 receptor, Bz-ATP at EC80, Fluo-8 NW; potency ranges A-D. Summed up:
(§1)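 HEK-293 cells stably expressing P2X7 were loaded with Fluo-8 NW for 1 h at RT, then given compound, and 5 min later Bz-ATP at EC80. Fluorescence was read by FLIPR in low divalent cation buffer (0.3 mM Ca2+, 0 mM Mg2+). IC50 came from percent inhibition relative to reference antagonist A438079.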

For assay [2], the target named is T2, P2X7 receptor (Rattus norvegicus, UniProt Q64663).
T2 construct: rP2X7 (IC50; nM); other: rP2X7; HEK-293 cells stably transfected with P2X7 receptor, Bz-ATP at EC80, Fluo-8 NW; potency
T2 sequence (Q64663 1-595): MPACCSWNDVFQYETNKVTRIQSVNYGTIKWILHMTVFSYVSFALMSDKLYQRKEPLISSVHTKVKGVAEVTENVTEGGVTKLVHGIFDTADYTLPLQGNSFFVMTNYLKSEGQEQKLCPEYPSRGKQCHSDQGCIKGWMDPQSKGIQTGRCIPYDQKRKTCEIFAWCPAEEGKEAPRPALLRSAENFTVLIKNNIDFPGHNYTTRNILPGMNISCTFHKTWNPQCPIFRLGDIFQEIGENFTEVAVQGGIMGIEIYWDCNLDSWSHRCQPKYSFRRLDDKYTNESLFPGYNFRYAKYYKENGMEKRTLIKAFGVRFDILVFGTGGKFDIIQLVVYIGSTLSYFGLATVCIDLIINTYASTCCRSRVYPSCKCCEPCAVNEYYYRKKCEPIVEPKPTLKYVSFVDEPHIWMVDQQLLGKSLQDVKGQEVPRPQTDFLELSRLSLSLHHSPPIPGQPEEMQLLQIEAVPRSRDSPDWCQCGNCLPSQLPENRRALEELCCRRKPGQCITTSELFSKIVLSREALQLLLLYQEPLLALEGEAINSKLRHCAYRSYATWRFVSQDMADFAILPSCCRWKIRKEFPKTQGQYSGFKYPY
As to conditions: rP2X7; HEK-293 cells stably transfected with P2X7 receptor, Bz-ATP at EC80, Fluo-8 NW; potency ranges A-D. The gist of the method: as §1

Assay [3] addresses T3, P2X7 receptor (Homo sapiens, UniProt Q99572).
T3 sequence (Q99572 1-595): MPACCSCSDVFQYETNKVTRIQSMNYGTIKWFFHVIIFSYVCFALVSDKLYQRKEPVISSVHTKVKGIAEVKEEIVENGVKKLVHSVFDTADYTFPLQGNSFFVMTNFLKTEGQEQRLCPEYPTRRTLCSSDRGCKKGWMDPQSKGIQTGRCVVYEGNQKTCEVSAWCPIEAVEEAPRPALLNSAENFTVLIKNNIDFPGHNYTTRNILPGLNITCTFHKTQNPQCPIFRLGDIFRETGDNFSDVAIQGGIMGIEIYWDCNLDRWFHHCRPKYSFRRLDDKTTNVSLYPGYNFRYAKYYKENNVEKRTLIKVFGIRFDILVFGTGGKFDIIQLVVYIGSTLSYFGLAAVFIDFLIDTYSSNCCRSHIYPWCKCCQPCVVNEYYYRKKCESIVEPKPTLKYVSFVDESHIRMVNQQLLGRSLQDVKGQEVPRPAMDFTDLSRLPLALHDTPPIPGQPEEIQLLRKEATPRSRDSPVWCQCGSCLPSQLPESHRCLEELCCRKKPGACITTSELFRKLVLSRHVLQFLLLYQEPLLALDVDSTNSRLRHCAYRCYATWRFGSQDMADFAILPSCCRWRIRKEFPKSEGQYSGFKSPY
More on the design: hP2X7 (IC50; nM); other: hP2X7; HEK-293 cells stably transfected with P2X7 receptor, Bz-ATP at EC80, Fluo-8 NW; potency. As to conditions: hP2X7; HEK-293 cells stably transfected with P2X7 receptor, Bz-ATP at EC80, Fluo-8 NW; potency ranges A-D. Summed up:
as §1

Where only a bound is given, the exact number is not on record here.

As for `CC(c1ccc(F)cc1)n1c(Cc2ccc(F)cc2)noc1=O` (stereo not drawn) [Example 11, 4-[1-(4-fluorophenyl)ethyl]-3-[(4-fluorophenyl)methyl]-4,5-dihydro-1,2,4-oxadiazol-5-one], the IC50 in assay [1], in assay [2] and in assay [3] was 1000 to 10000 nM throughout.

Consider `O=c1onc(CN2CCC(F)(F)CC2)n1CC1CCC(F)(F)CC1` [Example 223, 4-[(4,4-difluorocyclohexyl)methyl]-3-[(4,4-difluoropiperidin-1-yl)methyl]-4,5-dihydro-1,2,4-oxadiazol-5-one], for which the half-inhibitory concentration (IC50) in assay [1], in assay [2] and in assay [3] was > 10000 nM each time.

Take `O=c1onc(CN2CCCC(F)(F)C2)n1Cc1c(F)cccc1Cl` [Example 224, 4-[(2-chloro-6-fluorophenyl)methyl]-3-[(3,3-difluoropiperidin-1-yl)methyl]-4,5-dihydro-1,2,4-oxadiazol-5-one]: the IC50 in assay [1], in assay [2] and in assay [3] was 200 to 1000 nM each time.

`CCCn1c(Cc2c(F)cccc2Cl)noc1=O` [Example 176, 3-[(2-chloro-6-fluorophenyl)methyl]-4-propyl-4,5-dihydro-1,2,4-oxadiazol-5-one]: the concentration for half-maximal inhibition (IC50) in assay [1], in assay [2] and in assay [3] was > 10000 nM each time.

As for `Cc1ncccc1Cc1noc(=O)n1CC1CCCCC1` [Example 218, 4-(cyclohexylmethyl)-3-[(2-methylpyridin-3-yl)methyl]-4,5-dihydro-1,2,4-oxadiazol-5-one], the IC50 in assay [1] lay within 1000 to 10000 nM; in assay [2], 200 to 1000 nM; in assay [3] it was 200 to 1000 nM.

For `COc1cccc(Cc2noc(=O)n2Cc2c(F)cccc2Cl)c1` [Example 7, 4-[(2-chloro-6-fluorophenyl)methyl]-3-[(3-methoxyphenyl)methyl]-4,5-dihydro-1,2,4-oxadiazol-5-one], the half-inhibitory concentration (IC50) is 1000 to 10000 nM in assay [1], > 10000 nM in assay [2] and 1000 to 10000 nM in assay [3].

As for `O=c1onc(Cc2ccccc2F)n1Cc1c(F)cccc1Cl` [Example 19, 4-[(2-chloro-6-fluorophenyl)methyl]-3-[(2-fluorophenyl)methyl]-4,5-dihydro-1,2,4-oxadiazol-5-one], the concentration for half-maximal inhibition (IC50) is > 10000 nM in assay [1], 1000 to 10000 nM in assay [2] and 1000 to 10000 nM in assay [3].

For the compound `CC(C)(c1c(F)cccc1Cl)c1noc(=O)n1CC1CCCCC1` [Example 121, 3-[2-(2-chloro-6-fluorophenyl)propan-2-yl]-4-(cyclohexylmethyl)-4,5-dihydro-1,2,4-oxadiazol-5-one], the IC50 in assay [1], in assay [2] and in assay [3] was > 10000 nM each time.

For `O=c1onc(CC2CCCCC2)n1CC1CCCCC1` [Example 129, bis(cyclohexylmethyl)-4,5-dihydro-1,2,4-oxadiazol-5-one], the half-inhibitory concentration (IC50) in assay [1] is 1000 to 10000 nM; in assay [2], 1000 to 10000 nM; in assay [3], > 10000 nM.

Regarding `Cc1ncccc1Cc1noc(=O)n1CC1CCC(F)(F)CC1` [Example 219, 4-[(4,4-difluorocyclohexyl)methyl]-3-[(2-methylpyridin-3-yl)methyl]-4,5-dihydro-1,2,4-oxadiazol-5-one], the half-inhibitory concentration (IC50) in assay [1] lay in the range of 1000 to 10000 nM; in assay [2], 1000 to 10000 nM; in assay [3] it was 200 to 1000 nM.

As for `Cn1c(Cc2c(F)cccc2Cl)noc1=O` [Example 174, 3-[(2-chloro-6-fluorophenyl)methyl]-4-methyl-4,5-dihydro-1,2,4-oxadiazol-5-one], the IC50 in assay [1], in assay [2] and in assay [3] was > 10000 nM in each case.

For the compound `O=c1onc(CN2CCC(F)(F)CC2)n1Cc1ccc(F)cc1` [Example 221, 3-[(4,4-difluoropiperidin-1-yl)methyl]-4-[(4-fluorophenyl)methyl]-4,5-dihydro-1,2,4-oxadiazol-5-one], the 50% inhibitory concentration (IC50) is 1000 to 10000 nM in assay [1], 1000 to 10000 nM in assay [2] and > 10000 nM in assay [3].

Consider `O=c1onc(CC2CCC(F)(F)CC2)n1Cc1ccc(C(F)(F)F)o1` [Example 168, 3-[(4,4-difluorocyclohexyl)methyl]-4-{[5-(trifluoromethyl)furan-2-yl]methyl}-4,5-dihydro-1,2,4-oxadiazol-5-one], for which the IC50 in assay [1] lay within 200 to 1000 nM; in assay [2], 200 to 1000 nM; in assay [3] it was 1000 to 10000 nM.

For the compound `Cc1nnc(Cn2c(Cc3c(F)cccc3Cl)noc2=O)o1` [Example 41, 3-[(2-chloro-6-fluorophenyl)methyl]-4-[(5-methyl-1,3,4-oxadiazol-2-yl)methyl]-4,5-dihydro-1,2,4-oxadiazol-5-one], the half-inhibitory concentration (IC50) in assay [1], in assay [2] and in assay [3] was > 10000 nM throughout.

In the case of `O=c1onc(CC2CCC(F)(F)CC2)n1CC1CCCCC1` [Example 133, 4-(cyclohexylmethyl)-3-[(4,4-difluorocyclohexyl)methyl]-4,5-dihydro-1,2,4-oxadiazol-5-one], the IC50 in assay [1] is > 10000 nM; in assay [2] it was 1000 to 10000 nM; in assay [3], 1000 to 10000 nM.

With `Cc1nc(C(F)(F)F)ccc1Cn1c(CC2CCC(F)(F)CC2)noc1=O` [Example 192, 3-[(4,4-difluorocyclohexyl)methyl]-4-{[2-methyl-6-(trifluoromethyl)-pyridin-3-yl]methyl}-4,5-dihydro-1,2,4-oxadiazol-5-one], the half-maximal inhibitory concentration (IC50) in assay [1], in assay [2] and in assay [3] was > 10000 nM each time.

Turning to `Cc1nn(C)c(C)c1Cc1noc(=O)n1CC1CCC(F)(F)CC1` [Example 215, 4-[(4,4-difluorocyclohexyl)methyl]-3-[(trimethyl-1H-pyrazol-4-yl)methyl]-4,5-dihydro-1,2,4-oxadiazol-5-one], the half-inhibitory concentration (IC50) in assay [1] was 1000 to 10000 nM; in assay [2], 200 to 1000 nM; in assay [3] it was < 200 nM.

For the compound `COc1ccc(Cn2c(Cc3ccc(F)cc3)noc2=O)cc1` [Example 3, 3-[(4-fluorophenyl)methyl]-4-[(4-methoxyphenyl)methyl]-4,5-dihydro-1,2,4-oxadiazol-5-one], the concentration for half-maximal inhibition (IC50) in assay [1], in assay [2] and in assay [3] was > 10000 nM in each case.

Regarding `COCn1c(Cc2c(F)cccc2Cl)noc1=O` [Example 100, 3-[(2-chloro-6-fluorophenyl)methyl]-4-(methoxymethyl)-4,5-dihydro-1,2,4-oxadiazol-5-one], the half-inhibitory concentration (IC50) in assay [1], in assay [2] and in assay [3] was > 10000 nM in each case.
